Test results taken from patent publication US20200022370A1, “MICROBIOCIDAL OXADIAZOLE DERIVATIVES” (SYNGENTA PARTICIPATIONS AG, priority 2016, published 2020).

How the values were obtained:
Uromyces viciae-fabae = Uromyces viciae-fabae / field bean / leaf disc preventative (faba-bean rust); type: in vivo; conditions: foliar, 288 h, 100 ppm in the applied formulation, field bean leaf discs, inoculated two hours after application, vs untreated, 12 days after application, read-out: disease control
Experimental: (§1) Leaf disks or leaf segments of various plant species are cut from plants grown in a greenhouse. The cut leaf disks or segments are placed in multiwell plates (24-well format) onto water agar. The leaf disks are sprayed with a test solution before (preventative) or after (curative) inoculation. Compounds to be tested are prepared as DMSO solutions (max. 10 mg/ml) which are diluted to the appropriate concentration with 0.025% Tween20 just before spraying. The inoculated leaf disks or segments are incubated under defined conditions (temperature, relative humidity, light, etc.) according to the respective test system. A single evaluation of disease level is carried out 3 to 14 days after inoculation, depending on the pathosystem. Percent disease control relative to the untreated check leaf disks or segments is then calculated.
Example 5: Fungicidal Activity Against Uromyces viciae-fabael Field Bean/Leaf Disc Preventative (Faba-Bean Rust)
Field bean leaf discs are placed on water agar in multiwell plates (96-well format) and 10 μl of the Formulated test compound diluted in acetone and a spreader pipetted onto the leaf disc. Two hours after application leaf discs are inoculated by spraying a spore suspension on the lower leaf surface. The leaf discs are incubated in a climate cabinet at 22° C. with 18 hour day and 70% relative humidity. The activity of a compound is assessed as percent disease control compared to untreated when an appropriate level of disease damage appears in untreated check leaf disks (12 days after application).
The following compounds at 100 ppm in the applied Formulation give at least 80% disease control in this test when compared to untreated control leaf discs under the same conditions, which show extensive disease development.

[1] = system: Puccinia recondita f. Sp. Tritici; experiment: Puccinia recondita f. sp. tritici / wheat / leaf disc preventative (brown rust); type: in vivo; conditions: foliar, 200 ppm in the applied formulation, wheat leaf segments cv. Kanzler, inoculated 1 day after application, vs untreated, 7 to 9 days after application, read-out: disease control
How it was run: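 Segments of cv. Kanzler wheat on agar received a spray of compound formulation diluted in water and were inoculated with spores one day afterwards. Kept at 19° C and 75% rh under 12 h/12 h light; disease control relative to untreated checks rated at 7–9 days post-application.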

[2] = system: Puccinia recondita f. Sp. Tritici; experiment: Puccinia recondita f. sp. tritici / wheat / leaf disc curative (brown rust); type: in vivo; conditions: foliar, 200 ppm in the applied formulation, wheat leaf segments cv. Kanzler, compound applied 1 day after inoculation, vs untreated, 6 to 8 days after application, read-out: disease control
Experimental: as §1
Example 2: Fungicidal Activity Against Puccinia recondita f. sp. tritici/Wheat/Leaf Disc Curative (Brown Rust)
Wheat leaf segments cv. Kanzler are placed on agar in multiwell plates (24-well format). The leaf segments are then inoculated with a spore suspension of the fungus. Plates were stored in darkness at 19° C. and 75% relative humidity. The Formulated test compound diluted in water was applied 1 day after inoculation. The leaf segments were incubated at 19° C. and 75% relative humidity under a light regime of 12 hours light/12 hours darkness in a climate cabinet and the activity of a compound was assessed as percent disease control compared to untreated when an appropriate level of disease damage appears in untreated check leaf segments (6 to 8 days after application).
The following compounds at 200 ppm in the applied Formulation give at least 80% disease control in this test when compared to untreated control leaf disks under the same conditions, which show extensive disease development.

Phakopsora pachyrhizi = Phakopsora pachyrhizi / soybean / leaf disc preventative (Asian soybean rust); type: in vivo; conditions: foliar, 200 ppm in the applied formulation, soybean leaf disks, inoculated one day after application, vs untreated, 12 to 14 days after application, read-out: disease control
How it was run: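 Soybean leaf discs on water agar sprayed with formulated compound diluted in water, then inoculated one day later with spore suspension on the lower surface. Held 24-36 h dark at 20 °C, 75% rh, then 12 h light/day; percent disease control versus untreated scored 12-14 days after application.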

[3] = system: Glomerella lacenarium (Colletotrichum lacenarium); experiment: Glomerella lacenarium (Colletotrichum lacenarium) liquid culture / cucumber / preventative (anthracnose); type: cell-based; conditions: 20 ppm, liquid culture in PDB, 24° C., inhibition of growth measured photometrically 3 to 4 days after application, vs untreated, read-out: disease control
How it was run: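 Cryopreserved conidia in potato dextrose broth were added to test compound in a 96-well microtiter plate and incubated at 24 °C. Growth inhibition read photometrically 3–4 days after application, as percent activity versus untreated check.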

SMILES	pest or weed control at 100 ppm (Uromyces viciae-fabae) [%]	pest or weed control at 200 ppm [1] [%]	pest or weed control at 200 ppm [2] [%]	pest or weed control at 200 ppm (Phakopsora pachyrhizi) [%]	inhibition of growth at 20 ppm [3] [%]
O=C(Nc1ccc(-c2noc(C(F)(F)F)n2)cc1)c1ccccc1 [Compound 1.3, N-[4-[5-(trifluoromethyl)-1,2,4-oxadiazol-3-yl]phenyl]benzamide]	≥ 80	–	–	–	–
O=C(Nc1ccc(-c2noc(C(F)(F)F)n2)cc1)c1cccn2ccnc12 [Compound 1.7, N-[4-[5-(trifluoromethyl)-1,2,4-oxadiazol-3-yl]phenyl]imidazo[1,2-a]pyridine-8-carboxamide]	≥ 80	–	–	–	–
O=C(Nc1ccc(-c2noc(C(F)(F)F)n2)cc1)c1cn(C2CC2)c2cc(Cl)c(F)cc2c1=O [Compound 1.8, 7-chloro-1-cyclopropyl-6-fluoro-4-oxo-N-[4-[5-(trifluoromethyl)-1,2,4-oxadiazol-3-yl]phenyl]quinoline-3-carboxamide]	≥ 80	–	–	–	–
O=C(Nc1ccc(-c2noc(C(F)(F)F)n2)cc1)c1cccc2c1OCCO2 [Compound 1.9, N-[4-[5-(trifluoromethyl)-1,2,4-oxadiazol-3-yl]phenyl]-2,3-dihydro-1,4-benzodioxine-5-carboxamide]	≥ 80	–	–	–	–
O=C(NC(C(=O)Nc1ccc(-c2noc(C(F)(F)F)n2)cc1)c1ccccc1)OCc1ccccc1 (centres unmarked) [Compound 1.14, benzyl N-[2-oxo-1-phenyl-2-[4-[5-(trifluoromethyl)-1,2,4-oxadiazol-3-yl]anilino]ethyl] carbamate]	≥ 80	–	–	–	–
O=C(C=Cc1cccc2ccccc12)Nc1ccc(-c2noc(C(F)(F)F)n2)cc1 [Compound 1.17, 3-(1-naphthyl)-N-[4-[5-(trifluoromethyl)-1,2,4-oxadiazol-3-yl]phenyl]prop-2-enamide]	≥ 80	–	–	–	–
COc1cc(OC)nc(Oc2ncccc2C(=O)Nc2ccc(-c3noc(C(F)(F)F)n3)cc2)n1 [Compound 1.22, 2-(4,6-dimethoxypyrimidin-2-yl)oxy-N-[4-[5-(trifluoromethyl)-1,2,4-oxadiazol-3-yl]phenyl]pyridine-3-carboxamide]	≥ 80	–	–	–	–
COc1ccc(Br)cc1C(C)C(=O)Nc1ccc(-c2noc(C(F)(F)F)n2)cc1 (centres unmarked) [Compound 1.24, 2-(5-bromo-2-methoxy-phenyl)-N-[4-[5-(trifluoromethyl)-1,2,4-oxadiazol-3-yl]phenyl] propanamide]	≥ 80	–	–	–	–
Cn1nc(C(=O)Nc2ccc(-c3noc(C(F)(F)F)n3)cc2)c(Cl)c1OC(F)F [Compound 1.25, 4-chloro-5-(difluoromethoxy)-1-methyl-N-[4-[5-(trifluoromethyl)-1,2,4-oxadiazol-3-yl]phenyl]pyrazole-3-carboxamide]	≥ 80	–	–	–	–
O=C(Nc1ccc(-c2noc(C(F)(F)F)n2)cc1)c1nccc2nnsc12 [Compound 1.28, N-[4-[5-(trifluoromethyl)-1,2,4-oxadiazol-3-yl]phenyl]thiadiazolo [5,4-c]pyridine-4-carboxamide]	≥ 80	–	–	–	–
O=C(Nc1ccc(-c2noc(C(F)(F)F)n2)cc1)C1(F)CC1 [Compound 1.123, 1-fluoro-N-[4-[5-(trifluoromethyl)-1,2,4-oxadiazol-3-yl]phenyl]cyclo-propanecarboxamide]	–	≥ 80	≥ 80	≥ 80	≥ 80
CN(C(=O)C1CC1)c1ccc(-c2noc(C(F)(F)F)n2)cc1 [Compound 1.128, N-methyl-N-[4-[5-(trifluoromethyl)-1,2,4-oxadiazol-3-yl]phenyl]cyclo-propanecarboxamide]	–	≥ 80	≥ 80	≥ 80	≥ 80
CN(C(=O)C1(C)COC1)c1ccc(-c2noc(C(F)(F)F)n2)cc1 [Compound 1.139, N,3-dimethyl-N-[4-[5-(trifluoromethyl)-1,2,4-oxadiazol-3-yl]phenyl]oxetane-3-carboxamide]	–	≥ 80	≥ 80	≥ 80	≥ 80
CN(C(=O)C1CCCO1)c1ccc(-c2noc(C(F)(F)F)n2)cc1 (centres unmarked) [Compound 1.141, N-methyl-N-[4-[5-(trifluoromethyl)-1,2,4-oxadiazol-3-yl]phenyl] tetrahydrofuran-2-carboxamide]	–	≥ 80	≥ 80	≥ 80	≥ 80
CN(C(=O)C1(C#N)CC1)c1ccc(-c2noc(C(F)(F)F)n2)cc1 [Compound 1.142, 1-cyano-N-methyl-N-[4-[5-(trifluoromethyl)-1,2,4-oxadiazol-3-yl]phenyl]cyclo-propanecarboxamide]	–	≥ 80	≥ 80	≥ 80	≥ 80
COC(C)C(=O)N(C)c1ccc(-c2noc(C(F)(F)F)n2)cc1 (centres unmarked) [Compound 1.143, 2-methoxy-N-methyl-N-[4-[5-(trifluoromethyl)-1,2,4-oxadiazol-3-yl]phenyl] propanamide]	–	≥ 80	≥ 80	≥ 80	≥ 80
C#CCCC(=O)Nc1ccc(-c2noc(C(F)(F)F)n2)cc1 [Compound 2.4, N-[4-[5-(trifluoromethyl)-1,2,4-oxadiazol-3-yl]phenyi]pent-4-ynamide]	–	≥ 80	≥ 80	≥ 80	≥ 80
CCCC(=O)Nc1ccc(-c2noc(C(F)(F)F)n2)cc1 [Compound 2.5, N-[4-[5-(trifluoromethyl)-1,2,4-oxadiazol-3-yl]phenyl] butanamide]	–	≥ 80	≥ 80	≥ 80	≥ 80
O=C(Nc1ccc(-c2noc(C(F)(F)F)n2)cc1)C1CC=CC1 [Compound 2.7, N-[4-[5-(trifluoromethyl)-1,2,4-oxadiazol-3-yl]phenyl]cyclopent-3-ene-1-carboxamide]	–	≥ 80	≥ 80	≥ 80	≥ 80
N#CCC(=O)Nc1ccc(-c2noc(C(F)(F)F)n2)cc1 [Compound 2.13, 2-cyano-N-[4-[5-(trifluoromethyl)-1,2,4-oxadiazol-3-yl]phenyl] acetamide]	–	≥ 80	≥ 80	≥ 80	≥ 80
COCCCC(=O)Nc1ccc(-c2noc(C(F)(F)F)n2)cc1 [Compound 2.16, 4-methoxy-N-[4-[5-(trifluoromethyl)-1,2,4-oxadiazol-3-yl]phenyl] butanamide]	–	≥ 80	≥ 80	≥ 80	≥ 80
CN(C(=O)c1ccccc1)c1ccc(-c2noc(C(F)(F)F)n2)cc1 [Compound 2.20, N-methyl-N-[4-[5-(trifluoromethyl)-1,2,4-oxadiazol-3-yl]phenyl]benzamide]	–	≥ 80	≥ 80	≥ 80	≥ 80
CC(=O)Nc1ccc(-c2noc(C(F)(F)F)n2)cn1 [Compound 2.29, N-[5-[5-(trifluoromethyl)-1,2,4-oxadiazol-3-yl]-2-pyridyl]acetamide]	–	≥ 80	≥ 80	≥ 80	≥ 80
